{"source": "paper PMC3838783", "about": "(Applied Biochemistry and Biotechnology, 2013)", "origin": "cited, not measured here", "test_system": "rats"}
{"smiles": "CC(=O)NO", "note": "[acetohydroxyamic acid]", "values": [{"measurement": "Teratogenicity", "value": "teratogenic"}]}
